Assay results published in US10329304B2, “Compounds and methods for inhibition of hedgehog signaling and phosphodiesterase” (Vanderbilt University, priority 2014, dated 2019).
“Also recorded” adds a separate entry of the source. Where two headings read alike, the source gives them in different places.

Key:
[1] = Lipophilic efficiency (LipE = pEC50 − cLogP) and cLogP
Summary of the method: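 pEC50 came from TM3-Gli-Luc Gli-responsive luciferase reporter cells stimulated with 20 nM SAG, with non-specific cytotoxicity monitored in parallel. LipE was calculated by subtracting cLogP from pEC50.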

[2] = tested on: Hedgehog signaling (TM3-Gli-Luc); assay: TM3-Gli-Luc luciferase reporter assay stimulated with 20 nM SAG; assay type: cell-based; conditions: for EC50: read-out: TM3-Gli-Luc EC50
Summary of the method: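 Luciferase read-out divided by CellTiter-Glo viability, minus DMSO/no-SAG baseline, expressed relative to 20 nM SAG alone. Cells exposed to compound with SAG for 48 h at 37 °C in 2.5% FBS DMEM/F12 on gelatin. EC50 ±SEM from at least two separate-day runs.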

Gli1 transcription = assay: Sufu−/− mouse embryonic fibroblasts qRT-PCR; assay type: cell-based
Ptch1 transcription = assay: Sufu−/− mouse embryonic fibroblasts qRT-PCR; assay type: cell-based
TM3-Gli-Luc cells = assay: TM3-Gli-Luc cell viability (Cell Titer Glo, LD50); assay type: cell-based
Protocol: On the day of cell plating, 96-well plates were coated with 50 μL/well of sterile 0.1% gelatin for 5 minutes then aspirated and replaced with 50 μL/well of TM3 Culture Medium. TM3-Gli-Luc cells were seeded at a density of 5,000 cells/well in TM3 Culture Medium and incubated for 24 hours. A master mix of 20 nM SAG in TM3Luc Medium was prepared, and small molecule solutions were prepared by adding the desired amount of compound from 10 mM DMSO stock to TM3Luc Medium containing 20 nM SAG. Negative control was prepared by adding an equi-volume amount of DMSO as compared to small molecule treated conditions to TM3Luc Medium not containing SAG. Cell plating medium was aspirated and replaced with 100 μL/well of prepared small molecule-containing media, and plates were incubated for 48 hours before proceeding to luciferase activity and cell viability reading.
TM3Luc Medium from compound treated plates was aspirated and replaced with 82 μL/well of Glo Lysis Buffer (Promega, Madison, Wis., USA), and plates were shaken at 300 rpm and room temperature for 12 minutes. Lysate was split between two white 96-well plates, 45 μL/well and 25 μL/well for luciferase reading and cell viability respectively. For luciferase activity monitoring, 45 μL/well of Steady Glo (Promega, Madison, Wis., USA) was added to 45 μL/well of cell lysate, incubated at room temperature for 5 minutes, then luminescence was measured on a Turner Biosystems Modulus Microplate Reader (Sunnyvale, Calif., USA) with an integration time of 0.5 seconds. For cell viability measurement, 25 μL/well of Cell Titer Glo (Promega, Madison, Wis., USA) (prepared by 1:10 dilution with Glo Lysis Buffer) was added to 25 μL/well of cell lysate, incubated at room temperature for 5 minutes, then luminescence was measured as above.
All raw data was divided by the average of positive control cell titer data to arrive at percent cells remaining compared to positive control. […] At least two independent assays tested on separate days were averaged to provide LD50±standard error of the mean.

[3] = tested on: Hedgehog signaling (Gli-Luc reporter); conditions: read-out: reported EC50 in the Shh-LIGHT2 reporter line; cited from earlier work
Hh signaling = Hh signaling inhibition (assay not named, data not shown); assay type: cell-based
cAMP = assay: FRET-based cAMP sensors in NIH3T3 cells; assay type: cell-based; conditions: 2 μM
Excerpt: To visualize changes in cAMP concentrations in individual cells and cellular regions, we utilized two distinct FRET (fluorescence resonance energy transfer)-based cAMP sensors: the Epac-FRET sensor (mTurquoiseΔ-Epac(CD, ΔDEP)-cp173 Venus-Venus)^35, which detects cytosolic cAMP concentration and the PKA-based cAMP sensor (PKAC-YFP and PKARII-CFP combination), which has been used to document changes in local cAMP levels in the centrosome and basal body.

[4] = tested on: Hedgehog signaling (Gli-Luc reporter); assay: Hh Gli-Luciferase reporter assay in Shh-Light2 cells; assay type: cell-based, mouse; conditions: Shh-conditioned media
Summary of the method: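 Steady-Glo luminescence, corrected for cell titer by CellTiter-Glo, was measured after overnight exposure to compound concentrations. Signaling in Gli-Luc Shh-Light2 cells came either from Shh-conditioned medium, 3 μM purmorphamine or 20 nM SAG, or from transfected Gli-2, PDE4D3 or DN-PDE4D3 constructs.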

PKA activation = assay: Immunostaining of autophosphorylated PKA catalytic subunit in NIH3T3 cells; assay type: cell-based; conditions: SAG-stimulated NIH3T3 cells, Egm 5 μM, Rolipram 10 μM
Protocol: NIH3T3 cells were plated on Poly-D-Lysine-coated glass coverslips and were cultured at 37° C., 5% CO2 in DMEM medium containing 10% fetal bovine serum until reaching 75% confluency. For one set of experiments, cells were then transfected with VSV-tagged PDE4D3 plasmid (gift from Miles Houslay, University of Glasgow, Scotland, UK) using Fugene6 transfection reagent (Roche, Indianapolis, Ind.) per manufacturer's protocol. Afterward, cell medium was replaced with DMEM/0.5% FBS containing either 5 μM eggmanone or DMSO and incubated overnight at 37° C., 5% CO2. Cells were fixed in 4% PFA at room temperature for 10 minutes prior to permeabilization, blocking, and staining with primary antibodies against Arl13b (gift of Tamary Caspary, Emory University, Atlanta, Ga.) and VSV (AbCam, Cambridge, Mass.). Fluorescent immunocytochemistry was performed using species-specific, secondary antibodies (Jackson Immunoresearch, West Grove, Pa.). For additional immunocytochemistry experiment, cells were treated with 20 nM SAG in the presence or absence of 5 uM Eggmanone. After overnight incubation, cells were washed with PBS, fixed for 10 minutes in 4% PFA, permeabilized 20 minutes at −20C with cold methanol, blocked with PBS/1% BSA, and incubated with primary antibodies to phospho-PKA catalytic domain Thr197 (Cell Signaling, Danvers, Mass.) and then to Arl13b. An additional overnight blocking step using unconjugated rabbit IgG was required between primary antibody incubations since both antibodies were produced in rabbit. Fluorescent conjugated secondary antibodies were used for visualization. Data analysis was performed in part through the use of the VUMC Cell Imaging Shared Resource.
Using ImageJ software (National Institutes of Health, developed by W. Rasband), a region of interest was created using the magic wand tool on Arl13b channel and transposed to the Gli2 channel, and integrated density was measured and reported as arbitrary units (a.u.). For phospho-PKA, using ImageJ, a line selection tool was used to select a line projected through the length of the primary cilia and an equal length beyond. The intensity values were potted and the cumulative florescence (area under the curve) was calculated for three cilia, blindly, for each treatment. These values for cilia and pericilia domain were analyzed by a two tailed students t-test. For correlation analysis, correlation coefficient for intensity of gamma-tubulin and phosphor-PKA were calculated and compared among treatments with students t-test.

[5] = tested on: total cellular cAMP levels; assay: cAMP assay (total cellular cAMP, EIA chemiluminescence); assay type: cell-based
Protocol: Shh-Light2 cells were seeded in a 96-well plate and incubated overnight. Varying concentrations of Rolipram or Eggmanone (0.013 uM-30 uM) or DMSO only were added to the cells in the absence of serum and incubated 30 minutes, at which time forskolin was added for a final concentration of 1 uM. After an additional 15 minutes, cells were washed with PBS and assayed for cAMP levels using EIA based chemiluminescence kit according to the manufacturer's protocol (Cell Signaling Technologies, Danvers, Mass.).

mouse aorta = assay: Myography of cannulated mouse aorta
Excerpt: For myography, to test the vascular tone for presense of downstream or off target effects, mouse aorta was mounted and cannulated on a closed system. A physiological buffer (with respect to pH, CO2, and temperature) was circulated through the vessel.

[6] = Sufu−/− MEF, qRT-PCR, compounds tested at 10 μM, normalized to DMSO, mean ± SEM

CN(C)c1ccccc1CN1CCCN(Cc2ccccc2N(C)C)C1c1ccncc1 [GANT-61, reference compound]
LipE ([1]; Calculated as pEC50 - cLogP, Molinspiration Cheminformatics): 1.34
LipE ([1]; pEC50 - cLogP, Table 14): 1.34
Hh inhibitory activity / potency in words ([2]; 20 nM SAG): slightly higher than the reported
EC50 ([2]; 20 nM SAG, mean ± standard error of the mean): 9.27 ± 1.8 µM
EC50 ([2]; TM3-Gli-Luc reporter line stimulated with 20 nM SAG, mean ± SEM, Table 14): 9.27 ± 1.8 µM
inhibition of Gli1 transcription (Gli1 transcription; 10 μM): approximately 50%
Sufu−/− % Inh. Gil1 mRNA (Gli1 transcription; [6]): 43.8 ± 5.2%
inhibition of Ptch1 transcription (Ptch1 transcription; 10 μM): approximately 50%
Sufu−/− % Inh. Ptch1 mRNA (Ptch1 transcription; [6]): 52.8 ± 2.7%
TM3-Gli-Luc LD50 (TM3-Gli-Luc cells): >50 µM
EC50 [3]: ~5 µM

O=C(Nc1c(Cl)cncc1Cl)c1ccc(OC(F)F)c(OCC2CC2)c1 [Roflumilast]
Potency for Hh signaling inhibition (Hh signaling): micromolar potency

COc1ccc(C2CNC(=O)C2)cc1OC1CCCC1 (centres unmarked) [rolipram, reference compound]
Cytosolic FRET signal (Epac-FRET sensor) (cAMP): significantly increased the FRET signal throughout the cell
Sonic hedgehog (SHH)-responsive Gli-luciferase reporter activity [4]: did not bring the reporter activity down to the baseline even at very high concentrations
Sonic hedgehog (SHH)-responsive Gli-luciferase reporter activity ([4]; listed as Rolipram): incomplete even at high concentrations
PKA activation (phospho-PKA-C staining), spatial distribution (PKA activation): more diffuse increase in cytoplasmic phospho-PKA levels; also recorded: more diffuse increase in phospho-PKA staining
PKA activation (phospho-PKA-C staining), spatial distribution (PKA activation; listed as Rolipram): increases PKA activation more diffusely
Total cellular cAMP levels [5]: substantially; also recorded: elicited robust cAMP accumulation
Total cellular cAMP levels ([5]; listed as Rolipram): increased total cellular cAMP levels
Vessel diameter after pre-constriction (mouse aorta): caused the vessel to dilate
